Measured values: ChEMBL document CHEMBL1201862, “PubChem BioAssay data set” (2004)
Calls of active or inactive are those of the source.

How the values were obtained:
[1] = Counterscreen for antagonists of the orexin 1 receptor (OX1R; HCRTR1): Fluorescence-based cell-based high throughput dose response assay to identify antagonists of the parental CHO cell line. [Related pubchem assays (depositor defined):AID434989, AID435008, AID463079, AID485270, AID492963, AID492964, AID492965, AID493232, AID504699, AID504701]; assay type: functional
[2] = target: T1, Orexin/Hypocretin receptor type 1 (Homo sapiens, UniProt O43613); assay: Fluorescence-based cell-based high throughput dose response assay for antagonists of the orexin 1 receptor (OX1R; HCRTR1). [Related pubchem assays (depositor defined):AID434989, AID435008, AID463079, AID485270, AID492963, AID492964, AID492965, AID493232, AID504717, AID504718]; assay type: functional
[3] = target: T1, Orexin/Hypocretin receptor type 1; assay: Homogeneous Time Resolved Fluorescence (HTRF)-based cell-based high throughput dose response assay for antagonists of the orexin 1 receptor (OX1R; HCRTR1). [Related pubchem assays (depositor defined):AID434989, AID435008, AID463079, AID485270, AID492963, AID492964, AID492965, AID493232, AID504717, AID504718]; assay type: functional
[4] = target: T2, Sentrin-specific protease 8 (Homo sapiens, UniProt Q96LD8); assay type: functional
T2 sequence (Q96LD8 whole entry): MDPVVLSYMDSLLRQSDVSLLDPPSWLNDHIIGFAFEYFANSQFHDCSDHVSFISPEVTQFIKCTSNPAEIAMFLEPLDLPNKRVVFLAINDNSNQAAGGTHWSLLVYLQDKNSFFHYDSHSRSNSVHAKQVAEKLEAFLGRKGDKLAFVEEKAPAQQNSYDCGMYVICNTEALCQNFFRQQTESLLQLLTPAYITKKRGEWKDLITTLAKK

[5] = target: T2, Sentrin-specific protease 8; assay type: functional; remark: listed apart in the source
Orexin receptor type 2 [6] = target: T3, Orexin receptor type 2 (Homo sapiens, UniProt O43614); assay: Counterscreen assay for antagonists of the orexin 1 receptor (OX1R; HCRTR1): Homogeneous Time Resolved Fluorescence (HTRF)-based cell-based dose response assay for antagonists of the orexin 2 receptor (OX2R; HCRTR2), run by assay provider.; assay type: functional
Orexin receptor type 2 [7] = target: T3, Orexin receptor type 2; assay: Counterscreen assay for antagonists of the orexin 1 receptor (OX1R; HCRTR1): Fluorescence-based cell-based dose response assay for antagonists of the orexin 2 receptor (OX2R; HCRTR2), run by assay provider.; assay type: functional
CHO-K1 = assay: Counterscreen for antagonists of the orexin 1 receptor (OX1R; HCRTR1): Homogeneous time resolved fluorescence (HTRF)-based cell-based dose response assay to identify antagonists of the parental CHO-K1 cell line. [Related pubchem assays (depositor defined):AID434989, AID435008, AID463079, AID485270, AID492963, AID492964, AID492965, AID493232, AID504699, AID504701]; assay type: functional; settings: Cricetulus griseus;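 note: potency for inhibition of ATP-stimulated IP1 production as antagonists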
Cysteine protease ATG4B = Cysteine protease ATG4B (Homo sapiens, UniProt Q9Y4P1); assay type: functional;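 note: Fluorescence-based dose-response confirmation assay measuring inhibition of ATG4B activity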
Phospholipase A2 = Phospholipase A2 (Homo sapiens, UniProt P04054); assay type: functional;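 note: confirmatory dose-response counterscreen on phospholipase A2, testing hits that came from an ultra-high-throughput screen for ATG4B inhibitors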
[8] = Luminescence Cell-Based Dose Response Follow up to Identify Inhibitors of Platelet Dense Granule Release. [Related pubchem assays (depositor defined):AID1663, AID1678, AID2398]; assay type: functional
[9] = target: T4, Short transient receptor potential channel 4 (Mus musculus, UniProt Q9QUQ5); assay: SAR Analysis for the identification of selective inhibits of the transient receptor potential cation channel C4 (TRPC4): Automated Electrophysiology_2. [Related pubchem assays (depositor defined):AID2256]; assay type: functional
T4 sequence (Q9QUQ5 whole entry): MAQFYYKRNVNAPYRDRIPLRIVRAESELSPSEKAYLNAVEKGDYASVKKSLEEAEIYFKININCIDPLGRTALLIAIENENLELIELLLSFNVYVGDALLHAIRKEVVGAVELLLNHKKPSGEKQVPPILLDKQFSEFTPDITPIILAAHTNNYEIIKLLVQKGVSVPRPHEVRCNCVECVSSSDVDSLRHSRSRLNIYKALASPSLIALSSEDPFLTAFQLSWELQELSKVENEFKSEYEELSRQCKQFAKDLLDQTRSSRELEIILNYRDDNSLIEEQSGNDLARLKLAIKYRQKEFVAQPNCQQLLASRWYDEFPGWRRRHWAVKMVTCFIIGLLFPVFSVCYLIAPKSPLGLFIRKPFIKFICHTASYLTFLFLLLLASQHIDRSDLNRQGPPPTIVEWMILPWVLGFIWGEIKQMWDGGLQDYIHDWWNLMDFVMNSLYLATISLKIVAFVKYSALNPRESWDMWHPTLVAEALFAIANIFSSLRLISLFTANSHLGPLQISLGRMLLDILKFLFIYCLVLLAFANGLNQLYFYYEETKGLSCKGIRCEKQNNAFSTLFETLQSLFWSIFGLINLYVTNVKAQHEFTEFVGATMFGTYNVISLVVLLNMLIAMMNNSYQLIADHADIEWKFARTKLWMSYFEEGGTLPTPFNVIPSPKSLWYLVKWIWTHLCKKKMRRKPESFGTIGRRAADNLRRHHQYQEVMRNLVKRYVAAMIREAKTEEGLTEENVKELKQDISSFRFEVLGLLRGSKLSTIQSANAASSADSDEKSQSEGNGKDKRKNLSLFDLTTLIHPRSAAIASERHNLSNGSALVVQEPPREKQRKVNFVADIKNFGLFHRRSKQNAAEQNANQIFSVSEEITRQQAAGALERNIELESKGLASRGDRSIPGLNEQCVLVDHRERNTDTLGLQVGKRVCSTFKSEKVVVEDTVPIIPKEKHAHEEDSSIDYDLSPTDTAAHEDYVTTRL

[10] = target: Short transient receptor potential channel 6 (Mus musculus, UniProt Q61143); assay: mouse TRPC6 channel blockers, concentration series – HEK293 cells, membrane potential dye, IC50, selectivity assay for selective TRPC4 inhibitor project, dose response (AID 492987); assay type: functional, cell-based
Phospholipase D1 = Phospholipase D1 (Homo sapiens, UniProt Q13393); assay: cellular phospholipase D1 inhibition IC50 – cell-based, dose response (AID 602151); assay type: functional;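 note: cellular PLD1 assay in Calu-1 cells stimulated with PMA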
Phospholipase D2 = Phospholipase D2 (Homo sapiens, UniProt O14939); assay: cellular phospholipase D2 inhibition IC50 – cell-based, dose response (AID 602147); assay type: functional;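 note: cellular assay in HEK293 cells overexpressing GFP-tagged PLD2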
[11] = target: Serine/threonine-protein kinase pim-1 (Homo sapiens, UniProt P11309); assay type: functional
[12] = target: Hepatocyte growth factor receptor (Homo sapiens, UniProt P08581); assay type: functional;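 note: kinase panel profiling across the kinome, with MET as the panel member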
[13] = target: Cyclin-dependent kinase 8 (Homo sapiens, UniProt P49336); assay: Navigating the Kinome. Panel member name: CDK8; assay type: functional
[14] = target: Mitogen-activated protein kinase kinase kinase kinase 2 (Homo sapiens, UniProt Q12851); assay type: functional;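 note: measured as one member of a kinome-wide kinase panel, with MAP4K2 as the panel entry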
[15] = target: Dual specificity mitogen-activated protein kinase kinase 2 (Homo sapiens, UniProt P36507); assay: Navigating the Kinome. Panel member name: MAP2K2; assay type: functional
[16] = target: Serine/threonine-protein kinase Chk1 (Homo sapiens, UniProt O14757); assay type: functional;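 note: measured as one member of a kinome-wide kinase profiling panel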
[17] = target: Dual specificity tyrosine-phosphorylation-regulated kinase 1A (Homo sapiens, UniProt Q13627); assay type: functional;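 note: measured against DYRK1A as one member of a broad kinome profiling panel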
[18] = target: Dual specificity protein kinase CLK4 (Homo sapiens, UniProt Q9HAZ1); assay type: functional
LIM domain kinase 1 = LIM domain kinase 1 (Homo sapiens, UniProt P53667); assay: Navigating the Kinome. Panel member name: LIMK1; assay type: functional
[19] = target: Cyclin-dependent kinase 1 (Homo sapiens, UniProt P06493); assay type: functional;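 note: Kinome-wide panel profiling, with the target listed as panel member CDC2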
[20] = target: Interleukin-1 receptor-associated kinase 4 (Homo sapiens, UniProt Q9NWZ3); assay type: functional
[21] = target: Melanin-concentrating hormone receptor 1 (Homo sapiens, UniProt Q99705); assay: Late-stage fluorescence-based counterscreen for antagonists of the G-protein coupled receptor 7 (GPR7): cell-based dose response assay to identify antagonists of the melanin-concentrating hormone receptor 1 (MCHR1) Set 5.; assay type: functional
[22] = target: Neuropeptides B/W receptor type 1 (Homo sapiens, UniProt P48145); assay: human NPBW1 receptor blockade, IC50 – cell-based, fluorescence, dose response, set 5, late-stage follow-up (AID 588566); assay type: functional
[23] = target: ALK tyrosine kinase receptor (Homo sapiens, UniProt Q9UM73); assay type: functional;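 note: ALK tested as one member of a kinase panel screen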
Wee1-like protein kinase = Wee1-like protein kinase (Homo sapiens, UniProt P30291); assay: Navigating the Kinome. Panel member name: WEE1; assay type: functional
[24] = target: Cyclin-dependent kinase 19 (Homo sapiens, UniProt Q9BWU1); assay: Navigating the Kinome. Panel member name: CDC2L6; assay type: functional
Aurora kinase B = Aurora kinase B (Homo sapiens, UniProt Q96GD4); assay type: functional
Aurora kinase A = Aurora kinase A (Homo sapiens, UniProt O14965); assay type: functional;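 note: value from the Navigating the Kinome kinase panel profiling, panel entry STK6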
[25] = target: Benomyl/methotrexate resistance protein (Candida albicans, UniProt P28873); assay: Candida albicans Mdr1 pump inhibition curves – singleplex, Cherry Pick1 hits, dose response (AID 588608); assay type: functional
[26] = target: Multidrug resistance protein CDR2 (Candida albicans (strain SC5314 / ATCC MYA-2876) (Yeast), UniProt P78595); assay: inhibition of Nile Red efflux via Candida CDR2 – S. cerevisiae AD1-8u, singleplex, Cherry Pick1 hits, dose response (AID 588604); assay type: functional
[27] = alpha-synuclein stem-loop luciferase translation blockers – H4 neuroglioma cells, luminescence, confirmation (AID 1988); assay type: functional, cell-based
[28] = luciferase reporter signal suppression in cells – H4 neuroglioma cells, luminescence, dose response (AID 1990); assay type: functional, cell-based
[29] = HIV-1 AD8 envelope cell-cell fusion blockers – cherry-pick, dose response (AID 652062); assay type: functional, cell-based;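 note: luciferase signal from cell-cell fusion driven by HIV-1 clade B AD8 Env; potency is for inhibitors of fusion seen as a drop in luminescence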
[30] = off-target signal loss in HeLa-CEM21 co-culture – HeLa F-luc CTL cells, cherry-picked, counter-screen for HIV-1 Env fusion inhibitor project, dose response (AID 652040); assay type: functional, cell-based;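 note: potency for signal decrease marking cytotoxic or nonspecific inhibition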
[31] = Luminescence Cell-Based Dose Response HTS to Identify Inhibitors of 5'UTR Stem-Loop Driven Prion Protein mRNA Translation in H4 Neuroglioblastoma Cells. [Related pubchem assays: 1827 (Project Summary), 1813 (Primary HTS)]; assay type: functional
[32] = blockers of HIV-1 envelope-mediated cell-cell fusion – cherry-pick, dose response (AID 652057); assay type: functional, cell-based
[33] = target: Luciferin 4-monooxygenase (Photuris pensylvanica, UniProt Q27757); assay: inhibition of Cell Titer Glo luciferase signal – biochemical, luminescence, cherry-picks, counter-screen for HSF-1 reporter inhibitor project, dose response (AID 588847)
HEK293 = assay: EBV LMP1 TES2 canonical NF-kB signalling blockers – cell-based, HEK293, luciferase, cherry-pick, dose response (AID 588343); assay type: functional; settings: Homo sapiens
[34] = target: Mitogen-activated protein kinase 13 (Homo sapiens, UniProt O15264); assay type: functional
Mitogen-activated protein kinase 13, sequence (O15264 whole entry): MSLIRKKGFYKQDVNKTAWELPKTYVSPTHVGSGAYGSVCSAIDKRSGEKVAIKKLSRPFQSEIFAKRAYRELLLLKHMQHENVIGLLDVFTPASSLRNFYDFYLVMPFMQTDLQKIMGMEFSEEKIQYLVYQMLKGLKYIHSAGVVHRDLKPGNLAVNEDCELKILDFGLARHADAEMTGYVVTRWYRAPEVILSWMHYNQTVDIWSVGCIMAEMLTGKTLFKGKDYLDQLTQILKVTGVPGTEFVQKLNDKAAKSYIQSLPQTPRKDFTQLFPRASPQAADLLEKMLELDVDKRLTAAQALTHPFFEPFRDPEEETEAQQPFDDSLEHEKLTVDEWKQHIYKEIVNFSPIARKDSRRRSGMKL

T3 sequence (O43614 whole entry): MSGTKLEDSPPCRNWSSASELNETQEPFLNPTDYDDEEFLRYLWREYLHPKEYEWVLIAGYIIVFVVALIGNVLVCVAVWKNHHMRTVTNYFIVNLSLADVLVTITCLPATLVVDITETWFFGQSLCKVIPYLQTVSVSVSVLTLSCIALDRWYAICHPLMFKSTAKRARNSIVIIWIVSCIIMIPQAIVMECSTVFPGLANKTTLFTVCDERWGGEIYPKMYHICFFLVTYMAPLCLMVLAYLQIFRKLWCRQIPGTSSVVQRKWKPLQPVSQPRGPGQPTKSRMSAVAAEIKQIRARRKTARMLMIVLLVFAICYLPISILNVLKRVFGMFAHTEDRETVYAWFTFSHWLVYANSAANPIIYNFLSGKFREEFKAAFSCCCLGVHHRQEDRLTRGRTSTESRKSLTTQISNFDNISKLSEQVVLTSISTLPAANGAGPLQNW
T1 sequence (O43613 whole entry): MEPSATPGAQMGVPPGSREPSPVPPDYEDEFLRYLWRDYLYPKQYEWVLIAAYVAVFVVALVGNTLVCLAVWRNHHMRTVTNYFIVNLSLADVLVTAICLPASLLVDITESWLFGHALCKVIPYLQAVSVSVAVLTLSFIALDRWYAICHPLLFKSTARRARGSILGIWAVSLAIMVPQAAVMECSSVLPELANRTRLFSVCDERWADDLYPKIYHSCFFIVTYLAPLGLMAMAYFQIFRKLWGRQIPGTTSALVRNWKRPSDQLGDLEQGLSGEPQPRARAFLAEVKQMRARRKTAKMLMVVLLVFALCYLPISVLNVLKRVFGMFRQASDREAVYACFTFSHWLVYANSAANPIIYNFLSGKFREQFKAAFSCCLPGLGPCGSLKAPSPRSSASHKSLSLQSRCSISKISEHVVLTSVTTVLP
Phospholipase D2, sequence (O14939 whole entry): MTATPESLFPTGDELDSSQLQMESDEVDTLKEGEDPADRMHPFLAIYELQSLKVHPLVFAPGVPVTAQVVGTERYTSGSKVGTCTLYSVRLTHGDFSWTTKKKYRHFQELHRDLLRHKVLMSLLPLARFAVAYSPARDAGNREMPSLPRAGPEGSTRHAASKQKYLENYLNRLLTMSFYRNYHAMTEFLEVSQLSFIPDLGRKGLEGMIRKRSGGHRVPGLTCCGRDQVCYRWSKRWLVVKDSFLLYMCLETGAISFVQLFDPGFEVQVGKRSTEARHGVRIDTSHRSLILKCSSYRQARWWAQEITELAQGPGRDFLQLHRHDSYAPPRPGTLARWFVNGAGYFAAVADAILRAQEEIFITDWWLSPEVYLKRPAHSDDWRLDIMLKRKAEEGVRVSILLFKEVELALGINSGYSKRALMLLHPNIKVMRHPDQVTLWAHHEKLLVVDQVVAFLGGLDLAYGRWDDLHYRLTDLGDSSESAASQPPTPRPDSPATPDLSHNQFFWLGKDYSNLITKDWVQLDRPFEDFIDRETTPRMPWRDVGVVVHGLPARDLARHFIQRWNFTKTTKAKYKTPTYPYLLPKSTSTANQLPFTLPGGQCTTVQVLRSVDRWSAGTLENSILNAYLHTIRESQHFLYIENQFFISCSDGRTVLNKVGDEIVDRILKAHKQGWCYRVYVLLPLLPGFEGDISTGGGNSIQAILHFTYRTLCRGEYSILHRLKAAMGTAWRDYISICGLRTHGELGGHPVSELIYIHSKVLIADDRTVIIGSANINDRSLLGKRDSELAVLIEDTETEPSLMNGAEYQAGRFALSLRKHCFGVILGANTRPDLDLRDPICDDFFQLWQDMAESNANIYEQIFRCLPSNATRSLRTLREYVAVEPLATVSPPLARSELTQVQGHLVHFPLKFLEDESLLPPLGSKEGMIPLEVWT
Interleukin-1 receptor-associated kinase 4, sequence (Q9NWZ3 whole entry): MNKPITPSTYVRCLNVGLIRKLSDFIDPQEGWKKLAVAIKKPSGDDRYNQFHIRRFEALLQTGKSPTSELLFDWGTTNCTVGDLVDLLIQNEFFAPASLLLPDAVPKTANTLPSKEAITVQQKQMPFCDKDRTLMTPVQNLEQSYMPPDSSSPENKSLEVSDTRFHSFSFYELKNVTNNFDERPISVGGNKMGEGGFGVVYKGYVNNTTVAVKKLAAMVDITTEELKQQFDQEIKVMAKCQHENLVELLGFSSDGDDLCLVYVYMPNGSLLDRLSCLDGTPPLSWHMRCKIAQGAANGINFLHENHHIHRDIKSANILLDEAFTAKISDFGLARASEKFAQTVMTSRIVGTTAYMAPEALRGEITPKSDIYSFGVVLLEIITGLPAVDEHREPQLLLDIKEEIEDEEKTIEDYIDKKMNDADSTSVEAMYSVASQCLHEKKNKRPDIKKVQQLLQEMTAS
Cyclin-dependent kinase 1, sequence (P06493 whole entry): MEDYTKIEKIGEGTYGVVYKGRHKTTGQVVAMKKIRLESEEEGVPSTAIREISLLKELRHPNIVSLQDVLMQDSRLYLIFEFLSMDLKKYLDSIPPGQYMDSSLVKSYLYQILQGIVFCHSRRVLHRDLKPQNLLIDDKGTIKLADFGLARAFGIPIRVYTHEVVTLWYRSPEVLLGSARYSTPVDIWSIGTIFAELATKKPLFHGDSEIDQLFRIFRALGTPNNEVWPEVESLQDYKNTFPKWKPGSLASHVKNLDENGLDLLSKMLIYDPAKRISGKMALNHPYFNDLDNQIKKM
ALK tyrosine kinase receptor, sequence (Q9UM73 whole entry): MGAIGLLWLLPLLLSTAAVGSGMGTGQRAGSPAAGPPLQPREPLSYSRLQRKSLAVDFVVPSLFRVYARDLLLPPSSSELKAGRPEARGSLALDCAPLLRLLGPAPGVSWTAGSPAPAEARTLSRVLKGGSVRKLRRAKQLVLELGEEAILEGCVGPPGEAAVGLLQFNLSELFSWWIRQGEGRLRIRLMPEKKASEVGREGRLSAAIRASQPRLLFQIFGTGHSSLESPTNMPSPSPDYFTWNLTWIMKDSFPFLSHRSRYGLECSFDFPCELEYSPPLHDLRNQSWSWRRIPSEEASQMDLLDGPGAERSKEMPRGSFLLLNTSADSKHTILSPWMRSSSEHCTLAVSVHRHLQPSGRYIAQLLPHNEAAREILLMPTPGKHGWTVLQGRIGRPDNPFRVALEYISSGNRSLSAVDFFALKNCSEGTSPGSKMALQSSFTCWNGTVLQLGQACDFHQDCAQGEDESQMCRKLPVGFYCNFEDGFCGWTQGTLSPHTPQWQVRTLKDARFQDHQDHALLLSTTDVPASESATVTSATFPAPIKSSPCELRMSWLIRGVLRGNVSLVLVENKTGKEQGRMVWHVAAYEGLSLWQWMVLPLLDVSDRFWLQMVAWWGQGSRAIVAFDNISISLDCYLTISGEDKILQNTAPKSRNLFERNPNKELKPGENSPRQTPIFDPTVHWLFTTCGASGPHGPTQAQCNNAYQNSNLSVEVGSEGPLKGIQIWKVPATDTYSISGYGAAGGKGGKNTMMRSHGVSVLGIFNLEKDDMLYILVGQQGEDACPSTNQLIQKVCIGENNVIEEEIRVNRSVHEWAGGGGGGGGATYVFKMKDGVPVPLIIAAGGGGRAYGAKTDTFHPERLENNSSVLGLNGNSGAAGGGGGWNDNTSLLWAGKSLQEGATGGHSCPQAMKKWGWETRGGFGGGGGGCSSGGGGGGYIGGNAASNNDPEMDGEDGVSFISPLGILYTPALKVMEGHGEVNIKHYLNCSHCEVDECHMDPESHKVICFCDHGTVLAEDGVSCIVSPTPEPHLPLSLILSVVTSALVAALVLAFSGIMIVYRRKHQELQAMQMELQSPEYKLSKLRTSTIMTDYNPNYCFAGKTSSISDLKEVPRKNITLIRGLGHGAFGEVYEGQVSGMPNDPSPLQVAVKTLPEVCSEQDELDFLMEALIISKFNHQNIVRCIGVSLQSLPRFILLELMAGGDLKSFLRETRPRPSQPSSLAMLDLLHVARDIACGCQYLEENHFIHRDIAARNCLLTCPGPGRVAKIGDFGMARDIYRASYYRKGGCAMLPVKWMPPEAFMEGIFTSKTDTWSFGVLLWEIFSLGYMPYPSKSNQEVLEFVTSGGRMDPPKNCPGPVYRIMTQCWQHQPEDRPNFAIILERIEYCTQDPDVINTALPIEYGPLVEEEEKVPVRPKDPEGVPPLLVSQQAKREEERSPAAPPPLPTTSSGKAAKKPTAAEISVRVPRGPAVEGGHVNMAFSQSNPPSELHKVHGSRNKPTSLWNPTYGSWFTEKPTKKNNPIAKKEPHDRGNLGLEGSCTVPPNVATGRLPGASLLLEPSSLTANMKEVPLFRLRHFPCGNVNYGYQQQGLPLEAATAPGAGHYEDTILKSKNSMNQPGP
Cysteine protease ATG4B, sequence (Q9Y4P1 whole entry): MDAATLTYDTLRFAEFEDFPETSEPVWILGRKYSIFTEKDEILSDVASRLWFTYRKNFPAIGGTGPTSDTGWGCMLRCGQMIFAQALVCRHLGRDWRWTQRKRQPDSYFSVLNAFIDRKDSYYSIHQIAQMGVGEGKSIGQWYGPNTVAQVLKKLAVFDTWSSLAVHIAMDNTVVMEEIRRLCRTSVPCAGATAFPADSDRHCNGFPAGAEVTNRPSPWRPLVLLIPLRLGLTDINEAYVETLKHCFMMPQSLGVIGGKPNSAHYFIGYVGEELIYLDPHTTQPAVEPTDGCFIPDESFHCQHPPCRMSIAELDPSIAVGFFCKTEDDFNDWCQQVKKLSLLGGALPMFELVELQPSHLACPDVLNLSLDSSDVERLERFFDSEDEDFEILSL

CCOc1cc(C(=S)N2CCOCC2)cc(Br)c1OS(=O)(=O)c1ccccc1
IC50 [1]: > 49.8 µM (inactive)
IC50 [2]: 8.68 µM (active)
IC50 [3]: 4.56 µM (active)
IC50 [4]: 8.96 µM (active)
IC50 [5]: 8.6 µM (active)
IC50 (Orexin receptor type 2 [6]): > 50 µM (inactive)
IC50 (Orexin receptor type 2 [7]): 6.2 µM (active)
IC50 (CHO-K1): > 66.2 µM (inactive)

O=C(O)CCn1cc(/C=C\C(=O)c2ccc(Cl)cc2)c(-c2cccc(Br)c2)n1
IC50 (Cysteine protease ATG4B): 15.7 µM (active)
IC50 (Phospholipase A2): 14.9 µM (active)

Cn1c(N)c(C#N)c(-c2ccccc2)c(C#N)c1=O
EC50 [8]: 1.74 µM (active)

CCc1ccc2nc(N3CCCCC3)cc(C)c2c1
IC50 [9]: 3.73 µM (active)
IC50 [10]: 15 µM (active)

CC(C)[C@@H](CN1CCC2(CC1)C(=O)NCN2c1ccccc1)NC(=O)c1cc2cc(F)ccc2[nH]1
IC50 (Phospholipase D1): 0.026 µM (active)
IC50 (Phospholipase D2): 0.48 µM (active)

Oc1ccc(Cl)cc1C1=NNC(c2ccc3c(c2)OCCO3)C1 (centres undefined)
Ki [11]: 2 µM (active)
Ki [12]: 1.26 µM (active)
Ki [13]: 3.16 µM (active)
Ki [14]: 2.51 µM (active)
Ki [15]: 3.16 µM (active)

O=C(O)c1cnc2sccn2c1=O
Ki [16]: 39.8 µM (active)
Ki [17]: 63.1 µM (active)
Ki [18]: 39.8 µM (active)
Ki (LIM domain kinase 1): 50.1 µM (active)

CS(=O)(=O)Nc1ccccc1-c1ccc2c(c1)Nc1ccccc1NC2=O
Ki [19]: 7.94 µM (active)
Ki [20]: 3.98 µM (active)

CCOc1ccc(Oc2c(Cl)c(C)nn(Cc3cccc4ccccc34)c2=O)cc1
IC50 [21]: 14.8 µM (inactive)
IC50 [22]: 1.88 µM (active)

CCN1CCN(c2ccc(Nc3nccc(Nc4ccc5[nH]ncc5c4)n3)cc2)CC1
Ki [23]: 1 µM (active)
Ki (Wee1-like protein kinase): 0.158 µM (active)

Cc1ccc(F)c(NC(=O)Nc2ccc(-c3cc(CO)c(F)c4[nH]nc(N)c34)cc2)c1
Ki [24]: 2 µM (active)
Ki (Aurora kinase B): 0.01 µM (active)
Ki (Aurora kinase A): 0.126 µM (active)

CCN(CC)c1ccc(/C=C/c2cc(-c3ccccc3)c3ccccc3n2)cc1
EC50 [25]: 3.32 µM (active)
EC50 [26]: 16.1 µM (active)

CCOc1ccc(OCc2cccc(C(=O)N/N=C/c3cccnc3)c2)cc1
EC50 [27]: 9.36 µM (active)
EC50 [28]: 9.06 µM (active)
AC50 [29]: 3.31 µM (active)
AC50 [30]: 1.46 µM (active)
EC50 [31]: 12.8 µM (active)
AC50 [32]: 2.3 µM (active)
AC50 [33]: 31.9 µM (active)
AC50 (HEK293): 1.29 µM (active)

Cc1cccc(NC(=O)Nc2ccc(-c3ccc4nccnc4c3N)cc2)c1
Ki [34]: > 7.94 µM (inactive)
